In patent publication US11466010B2, “Toll-like receptor 8 (TLR8) specific antagonists and methods of making and uses thereof” (The Regents of the University of Colorado, a body corporate, priority 2017, dated 2022):

The molecules below were run against T1, human TLR8 (Homo sapiens, UniProt Q9NR97) (assay: SEAP reporter assay in HEK-Blue TLR8 cells, R848-induced TLR8 signaling). Conditions: not given.
T1 construct: expressed in transfected cells; host or cells: HEK-Blue Null1 cells, lentiviral infection
T1 sequence (Q9NR97 27-1041): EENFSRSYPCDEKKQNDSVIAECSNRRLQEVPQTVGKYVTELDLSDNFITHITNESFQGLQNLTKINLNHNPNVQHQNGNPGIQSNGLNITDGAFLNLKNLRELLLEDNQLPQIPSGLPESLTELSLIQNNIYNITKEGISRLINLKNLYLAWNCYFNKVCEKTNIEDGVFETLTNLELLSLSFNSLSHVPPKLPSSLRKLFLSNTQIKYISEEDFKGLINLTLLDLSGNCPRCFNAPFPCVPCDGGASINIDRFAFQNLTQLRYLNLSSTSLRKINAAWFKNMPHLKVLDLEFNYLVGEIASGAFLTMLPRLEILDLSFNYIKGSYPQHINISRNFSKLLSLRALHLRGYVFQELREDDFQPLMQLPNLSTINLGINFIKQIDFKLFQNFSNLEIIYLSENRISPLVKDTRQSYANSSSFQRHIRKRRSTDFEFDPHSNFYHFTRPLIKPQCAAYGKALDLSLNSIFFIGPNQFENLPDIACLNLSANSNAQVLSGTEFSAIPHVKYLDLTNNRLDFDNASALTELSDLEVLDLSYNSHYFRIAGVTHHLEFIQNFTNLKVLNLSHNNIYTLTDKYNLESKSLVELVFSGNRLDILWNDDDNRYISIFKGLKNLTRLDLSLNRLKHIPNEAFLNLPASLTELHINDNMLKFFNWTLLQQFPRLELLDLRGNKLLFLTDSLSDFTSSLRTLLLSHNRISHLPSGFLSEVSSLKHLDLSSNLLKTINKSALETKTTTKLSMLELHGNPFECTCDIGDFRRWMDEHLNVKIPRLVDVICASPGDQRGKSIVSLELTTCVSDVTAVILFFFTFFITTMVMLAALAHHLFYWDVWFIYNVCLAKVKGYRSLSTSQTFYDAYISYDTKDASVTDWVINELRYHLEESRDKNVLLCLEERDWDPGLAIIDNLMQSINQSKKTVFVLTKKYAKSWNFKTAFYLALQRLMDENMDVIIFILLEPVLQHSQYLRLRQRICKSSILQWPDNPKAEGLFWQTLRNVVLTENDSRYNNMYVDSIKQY
Type: cell-based
Method: SEAP reporter assay: HEK-Blue TLR8 cells were seeded in tissue culture treated 96-well plates with a density of 7.5×10^4 cells/well in DMEM media supplemented with 10% FBS (phosphatases deactivated with heat). […] Plates are then incubated in humidified incubators containing 5% CO2 at 37° C. for 24 h, after which, 30 μL of culture media was transfer to a new plate and 100 μL of Quanti-Blue (Invivogen) was added, the plate was then incubated at 37° C. till color change (30 min-1 h). Readout of absorbance at 620 nm was quantified using Beckman-Coulter DTX 880 Multimode Detector. […] SEAP assays for each sample were conducted with three biological replicates, each in triplicate.
To establish a robust high throughput assay for TLR8 inhibitors, the inventors first engineered a cell line stably overexpressing the human TLR8 whose activation can be reported by the Secreted Embryonic Alkaline Phosphatase (SEAP) assay. TLR8-overexpresing HEK-Blue cells were prepared by lentiviral infection of HEK-Blue Null1 cells that have null or low basal expression of endogenous TLR genes. […] The TLR8-mediated NF-κB activation can be assessed by measuring the SEAP activity.
`Cc1cc(-c2ccnc3cc(Cl)ccc23)ccc1O` [CU-CPT9c, 4-(7-Chloro-4-quinolinyl)-2-methyl-phenol] gave an IC50 of 1 ± 0.2 nM.

Same assay, conditions: 1(2H)-phthalazinone and quinoline derivatives in HEK-Blue hTLR8 cells
Molecule `COc1ccc(-c2ccc(O)c(C)c2)c2ccccc12` [Compound 1, 1-Methoxy-4-(4-hydroxy-3-methylphenyl)-naphthalene] has an IC50 of 7030 ± 360 nM. In the case of `Cc1cc(-c2ccc(O)c3ccccc23)ccc1O` [Compound 2, 4-(4-Hydroxy-3-methylphenyl)-1-naphthol], the IC50 is reported as 480 ± 430 nM. `Cc1cc(-c2ccc(N)c3ccccc23)ccc1O` [Compound 3, 1-Amino-4-(4-hydroxy-3-methylphenyl)-naphthalene] gave an IC50 of 2720 ± 310 nM. For `Cc1cc(-c2nn(C)c(=O)c3ccccc23)cc(C)c1O` [Compound 4, 4-(4-Hydroxy-3,5-dimethylphenyl)-2-methyl-1(2H)-Phthalazinone], the IC50 was 170 ± 20 nM. `O=c1[nH]nc(-c2ccccc2)c2ccccc12` [Compound 5, 4-Phenyl-1(2H)-phthalazinone] showed an IC50 greater than 20000 nM. `Cn1nc(-c2ccccc2)c2ccccc2c1=O` [Compound 6, 2-Methyl-4-phenyl-1(2H)-Phthalazinone] showed an IC50 greater than 20000 nM. `Cc1ccc(C)c(-c2n[nH]c(=O)c3ccccc23)c1` [Compound 7, 4-(2,5-Dimethylphenyl)-1(2H)-Phthalazinone] was tested, and the IC50 was greater than 20000 nM. Molecule `Cc1cc(C)cc(-c2n[nH]c(=O)c3ccccc23)c1` [Compound 8, 4-(3,5-Dimethylphenyl)-1(2H)-phthalazinone] has an IC50 greater than 20000 nM. `COc1ccc(-c2n[nH]c(=O)c3ccccc23)cc1` [Compound 9, 4-(4-Methoxyphenyl)-1(2H)-phthalazinone] showed an IC50 greater than 20000 nM. `COc1ccc(-c2nn(C)c(=O)c3ccccc23)cc1` [Compound 10, 4-(4-Methoxyphenyl)-2-methyl-1(2H)-phthalazinone] was tested, and the IC50 was greater than 20000 nM. Work on `COc1c(C)cc(-c2n[nH]c(=O)c3ccccc23)cc1C` [Compound 11, 4-(4-Methoxy-3,5-dimethylphenyl)-1(2H)-phthalazinone] yielded an IC50 greater than 20000 nM. In the case of `Cc1cc(-c2n[nH]c(=O)c3ccccc23)cc(C)c1C(=O)O` [Compound 13, 4-(4-Carboxylic-3,5-dimethylphenyl)-1(2H)-phthalazinone], the IC50 is reported as greater than 20000 nM. In the case of `Cc1cc(-c2n[nH]c(=O)c3ccccc23)ccc1C(=O)O` [Compound 14, 4-(4-Carboxylic-3-methylphenyl)-1(2H)-phthalazinone], the IC50 is reported as greater than 20000 nM. For `Cc1cc(-c2n[nH]c(=O)c3ccccc23)cc(C)c1N` [Compound 15], the IC50 was greater than 20000 nM. `COC(=O)c1ccc(-c2n[nH]c(=O)c3ccccc23)cc1C` [Compound 16, 4-(4-Carbomethoxyl-3-methylphenyl)-1(2H)-phthalazinone] showed an IC50 of 8510 ± 3150 nM. `CC(=O)Oc1c(C)cc(-c2n[nH]c(=O)c3ccccc23)cc1C` [Compound 17, 4-(4-Acetoxy-3,5-dimethylphenyl)-1(2H)-phthalazinone] gave an IC50 of 4760 ± 420 nM. For `CC(=O)Oc1ccc(-c2n[nH]c(=O)c3ccccc23)cc1C` [Compound 18, 4-(4-Acetoxy-3-methylphenyl)-1(2H)-phthalazinone], the IC50 was 3770 ± 450 nM. In the case of `O=c1[nH]nc(-c2ccc(O)cc2)c2ccccc12` [Compound 19, 4-(4-Hydroxyphenyl)phthalazin-1(2H)-one], the IC50 is reported as greater than 20000 nM. Molecule `Cc1cc(-c2n[nH]c(=O)c3ccccc23)cc(C)c1O` [Compound 20, 4-(4-Hydroxy-3,5-dimethylphenyl)-1(2H)-phthalazinone] has an IC50 of 3910 ± 200 nM. Molecule `Cc1cc(-c2n[nH]c(=O)c3ccccc23)ccc1O` [Compound 21, 4-(4-Hydroxy-3-methylphenyl)-1(2H)-phthalazinone] has an IC50 of 1300 ± 320 nM. Work on `CCc1cc(-c2n[nH]c(=O)c3ccccc23)ccc1O` [Compound 22, 4-(4-Hydroxy-3-ethylphenyl)-1(2H)-phthalazinone] yielded an IC50 of 2730 ± 850 nM. `CC(C)c1cc(-c2n[nH]c(=O)c3ccccc23)cc(C(C)C)c1O` [Compound 23, 4-(4-Hydroxy-3,5-diisopropylphenyl)-1(2H)-phthalazinone] was tested, and the IC50 was greater than 20000 nM. Work on `Cc1cc(-c2n[nH]c(=O)c3ccccc23)c(C)c(C)c1O` [Compound 24, 4-(4-Hydroxy-2,3,5-trimethylphenyl)-1(2H)-phthalazinone] yielded an IC50 greater than 20000 nM. For `O=c1[nH]nc(-c2ccc(O)c3ccccc23)c2ccccc12` [Compound 25, 4-(4-Hydroxy-naphthyl)-1(2H)-phthalazinone], the IC50 was greater than 20000 nM. In the case of `O=c1[nH]nc(-c2ccc(O)c(C(F)(F)F)c2)c2ccccc12` [Compound 26, 4-(4-Hydroxy-3-trifluoromethylphenyl)-1(2H)-phthalazinone], the IC50 is reported as greater than 20000 nM. In the case of `COc1ccc(-c2n[nH]c(=O)c3ccccc23)cc1C(F)(F)F` [Compound 27, 4-(4-Methoxyl-3-trifluoromethylphenyl)-1(2H)-phthalazinone], the IC50 is reported as greater than 20000 nM. In the case of `N#Cc1cc(-c2n[nH]c(=O)c3ccccc23)ccc1O` [Compound 28, 4-(4-Hydroxy-3-cyanophenyl)-1(2H)-phthalazinone], the IC50 is reported as greater than 20000 nM. Molecule `COc1ccc(-c2n[nH]c(=O)c3ccccc23)cc1[N+](=O)[O-]` [Compound 29, 4-(4-Methoxyl-3-nitrophenyl)-1(2H)-phthalazinone] has an IC50 greater than 20000 nM. With `Cc1cc(-c2nn(C)c(=O)c3ccccc23)ccc1O` [Compound 30, 4-(4-Hydroxy-3-methylphenyl)-2-methyl-1(2H)-phthalazinone] the IC50 was 330 ± 40 nM. With `CCn1nc(-c2ccc(O)c(C)c2)c2ccccc2c1=O` [Compound 31, 4-(4-Hydroxy-3-methylphenyl)-2-ethyl-1(2H)-phthalazinone] the IC50 was greater than 20000 nM.

Same assay, conditions: HEK-Blue TLR8 cells
`NC(=O)c1cnn2c(-c3cccc(C(F)(F)F)c3)ccnc12` [Compound 6a] was tested, and the “fold higher potency than 6c” value was 2 fold and the “fold higher potency than 6d” value was 10 fold. Work on `NC(=O)c1cnn2c(-c3cccnc3)ccnc12` [Compound 6l] yielded an IC50 greater than 20000 nM.

Same assay, conditions: HEK-Blue TLR8 cells, R848 as agonist
Molecule `NC(=O)c1cnn2c(-c3cccc(C(F)(F)F)c3)ccnc12` [Compound 6a] has an IC50 of 130 nM. Molecule `NC(=O)c1cnn2c(-c3ccccc3)ccnc12` [Compound 6e] has an IC50 of 760 nM.

Same assay, conditions: pyrazolo[1,5-a]pyrimidine derivatives in HEK-Blue hTLR8 cells; ± SD, at least three biological replicates
`CCOC(=O)c1cnn2c(-c3cccc(C(F)(F)F)c3)ccnc12` [Compound 3a] showed an IC50 of 210 ± 43 nM. `CCOC(=O)c1cnn2c(-c3cccc(C)c3)ccnc12` [Compound 3b] showed an IC50 of 92 ± 15 nM. For `NC(=O)c1cnn2c(-c3ccccc3C(F)(F)F)ccnc12` [Compound 6c], the IC50 was 230 ± 140 nM. With `NC(=O)c1cnn2c(-c3ccc(C(F)(F)F)cc3)ccnc12` [Compound 6d] the IC50 was 1220 nM. For `NC(=O)c1cnn2c(-c3cccc([N+](=O)[O-])c3)ccnc12` [Compound 6f], the IC50 was 220 ± 70 nM. `NC(=O)c1cnn2c(-c3cccc(F)c3)ccnc12` [Compound 6g] showed an IC50 of 450 ± 90 nM. With `NC(=O)c1cnn2c(-c3cccc(Cl)c3)ccnc12` [Compound 6h] the IC50 was 280 ± 100 nM. `NC(=O)c1cnn2c(-c3cc(C(F)(F)F)cc(C(F)(F)F)c3)ccnc12` [Compound 6i] showed an IC50 of 250 ± 130 nM. Molecule `COc1ccccc1-c1ccnc2c(C(N)=O)cnn12` [Compound 6j] has an IC50 of 2310 nM. With `COc1cccc(-c2ccnc3c(C(N)=O)cnn23)c1` [Compound 6k] the IC50 was 1200 nM. `NC(=O)c1cnn2c(-c3cccnc3)ccnc12` [Compound 6l] gave an IC50 greater than 20000 nM. `CCc1cccc(-c2ccnc3c(C(N)=O)cnn23)c1` [Compound 6m] showed an IC50 of 120 ± 23 nM. Molecule `CNC(=O)c1cnn2c(-c3cccc(C(F)(F)F)c3)ccnc12` [Compound 6n] has an IC50 of 1700 nM.

Same assay, conditions: quinoline derivatives in HEK-Blue hTLR8 cells; ± SD, at least three biological replicates
Molecule `Cc1cc(-c2ccc(O)c(C)c2)c2ccccc2n1` [Compound 11c] has an IC50 of 86 ± 11 nM. For `Cc1cc(-c2cccc3ccccc23)ccc1O` [Compound 11d], the IC50 was greater than 20000 nM. Molecule `O=c1[nH]nc(-c2ccccc2)c2ccccc12` [Compound 14a] has an IC50 greater than 20000 nM. Molecule `Cc1cc(-c2n[nH]c(=O)c3ccccc23)ccc1O` [Compound 14b] has an IC50 of 1300 ± 320 nM.

Same assay, conditions: secondary amide analog versus primary amide
With `CNC(=O)c1cnn2c(-c3cccc(C(F)(F)F)c3)ccnc12` [Compound 6n] the “fold reduction in potency” value was 25 fold.

Same assay, conditions: up to 20 μM
`Cc1cccc(-c2ccnc3c(C(=O)O)cnn23)c1` [Compound 4b] was tested, and the “inhibitory activity against TLR8 signaling” value was “did not show any inhibitory activity”. For `CCN(CC)C(=O)c1cnn2c(-c3cccc(C(F)(F)F)c3)ccnc12` [Compound 6o], the “inhibitory activity against TLR8 signaling” value was “no significant activity”.
